Measurements published in patent US6376517B1, “Pipecolic acid derivatives for vision and memory disorders” (GPI NIL Holdings, Inc., priority 1998, dated 2002).
pKi: −log10 of the molar value. One block for each compound: values may come before it.

Assays:
[1] = test system: retinal ganglion cell axons; experiment: Protection of retinal ganglion cell axons from degeneration following optic nerve transection (Table E); assay type: in vivo, rat; conditions: 14 days after optic nerve transection; ± SEM
Description: Efficacy of representative compounds from different immunophilin ligand series in protecting retinal ganglion cell axons from degeneration following optic nerve transection is set forth in Table E.

[2] = Clearance (Table E comments); assay type: in vitro ADME
[3] = test system: retinal ganglion cells, optic nerve axons and myelin; experiment: Retinal ischemia (intraocular pressure above arterial blood pressure), examined 28 days later; assay type: in vivo, adult rats
Description: Retinal ganglion cells were retrogradely labeled in adult rats by bilateral injection of fluorogold in their lateral geniculate nuclei. Labeled ganglion cells in the normal rat retina appear as white profiles against the dark background (FIG. 1A). Complete retinal ischemia was produced by infusing normal saline solution into the retinal vitreous cavity of each eye until the intraocular pressure exceeded arterial blood pressure. 28 days after the ischemic episode extensive degeneration of retinal ganglion cell was evidenced by massive reduction in the density of fluorogold labeled cells (FIG. 1B).

[4] = test system: retinal ganglion cells and optic nerve axons; experiment: Optic nerve transection vision loss model, 14 or 28 day treatment, sacrifice at 90 days (Example 2, Table A); assay type: in vivo, Sprague Dawley rats; conditions: for Proximal optic nerve myclin basic protein Density, % recovery: ± SEM, % areal coverage of optic nerve cross section
Description: All eyes and optic nerves stumps were removed.

[5] = Morris watermaze spatial learning and memory in aged rodents (Example 15); assay type: in vivo, C57BL/6N-Nia mice; conditions: aged impaired mice, 10 mg/kg daily, retention testing after 3 weeks of dosing
Description: The Morris watermaze is widely used for assessing spatial memory formation and retention in experimental animals. The test depends on the animal's ability to utilize spatial visual information in order to locate a submerged escape platform in a water tank. It is important that the tank itself be as devoid of specific visual features as possible—thus, it is always circular in shape, the sides are kept smooth and in uniform dull colors, and the water is rendered opaque with nontoxic watercolor pigment or powdered milk. This is to ensure that the animal navigates only by the use of more distant visual cues, or by the use of intra-maze cues specifically provided by the experimenter. The animals' path, speed, and swim time are tracked with a ceiling camera for later computerized analysis. Over the course of several successive trials, spatial learning can therefore be defined as a drop of distance swum, or time elapsed, from placement in the tank until escape onto the invisible platform. The procedure involved using three-month old (young) and 18-19 month old male C57BL/6N-Nia (aged) mice which habituated to the well known and conventional Morris watermaze during a 4 trials/day, 3-4 day visible platform training phase. […] Swim Distances (cm) were analyzed in a 7×5 ANOVA including Groups and Blocks (1-5) as factors in the analysis, treating Blocks as a repeated measure.

retinal ganglion cells = experiment: Optic nerve transection, 28 days treatment, sacrifice at 90 days (Example 13); assay type: in vivo, Sprague Dawley rats; conditions: 10 mg/kg/day s.c. for 28 days, 90 days after transection
Description: Transection of the mammalian optic nerve results in a brief period of abortive regeneration, but the majority of axotomized neurons die and the axons from many persisting ganglion cells die back beyond the optic nerve head.

FKBP12 = FKBP12 (Homo sapiens, UniProt P62942); experiment: Ki Test Procedure: inhibition of peptidyl-prolyl isomerase (rotamase) activity, chymotrypsin-coupled assay; assay type: biochemical; conditions: Table E comments
Sequence of FKBP12 (P62942 whole entry, species assumed): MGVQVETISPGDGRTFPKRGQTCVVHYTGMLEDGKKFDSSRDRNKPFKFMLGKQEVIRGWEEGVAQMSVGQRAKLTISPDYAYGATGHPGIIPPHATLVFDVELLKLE

SMILES: O=C(SCCCc1ccccc1)[C@@H]1CCCN1C(=O)NC12CC3CC(CC(C3)C1)C2 [B]
RT97 + RGC axon density 14 days after On transection (% ON axons rescued) [1]: 100.0% ± 5.2% SEM

Clearance [2]: 41.8 µL/min
SMILES: CCC(C)(C)C(=O)C(=O)N1CCCCC1C(=O)OC(CCc1ccccc1)CCc1ccccc1 (centres unmarked) [E]

SMILES: CCC(C)(C)C(=O)C(=O)N1CCC[C@H]1C(=O)OCCCc1cccnc1 [GPI 1046]
protection of retinal ganglion cells (fluorogold labeled) after retinal ischemia ([3]; 10 mg/kg s.c. 1 hour prior to ischemia and 10 mg/kg/day for the next four days, 28 days after ischemia): noticeable protection of a large proportion of the vulnerable ganglion cell population
density of degenerating myelin figures after retinal ischemia ([3]; 28 days after 1 hour retinal ischemic episode): dramatically decreased the density of degenerating myelin figures
protection of optic nerve axons after retinal ischemia ([3]; 28 days after 1 hour retinal ischemic episode, toluidine blue staining): protected the majority of optic nerve axons from degeneration
RGC Counts ([4]; 14 days treatment, 10 mg/kg/day sc, 90 days after transection, mean density ± SEM of Fluoro-gold labeled RGC in 400 μm × 400 μm gridfields): 49 ± 5.3
Distal optic nerve shrinkage ([4]; 14 days treatment, cross sectional area compared to sham control): 33% shrinkage
Distal optic nerve myclin basic protein Density, loss ([4]; 14 days treatment, cross sectional area multiplied by myelin density): 47% loss
Proximal optic nerve myclin basic protein Density, % recovery ([4]; 14 days treatment): 1.6 ± 3.0 SEM % recovery
density of large, medium and small caliber optic nerve axons ([4]; 28 day treatment): significant increase
ON Axon density ([4]; 28 days treatment, 90 days after transection, RT97 labeled axons in 200 μm × 200 μm region, mean ± SEM): 1526 ± 120
Distal optic nerve, less shrinkage ([4]; 28 days treatment, cross sectional area compared to sham control): 56% less shrinkage*
Proximal optic nerve myclin basic protein Density, % recovery ([4]; 28 days treatment): 70 ± 6.3 SEM % recovery
spatial memory performance (Morris watermaze retention, swim distance) [5]: significantly enhanced spatial memory performance
ganglion cell population spared (retinal ganglion cells): 25%
preservation of axons in the proximal stump of the transected nerve (retinal ganglion cells; RT97 neurofilament): preserved the axons of virtually all protected neurons

pKi (FKBP12): < 5.00
SMILES: C=C(C(=O)N1CCCC[C@H]1C(=O)O)C(C)(C)CC [G]
RT97 + RGC axon density 14 days after On transection (% ON axons rescued) [1]: 34.0% ± 4.8% SEM

SMILES: C=C(C(=O)N1CCCC[C@H]1C(N)=O)C(C)(C)CC [H]
RT97 + RGC axon density 14 days after On transection (% ON axons rescued) [1]: 30.3% ± 8.0% SEM

Clearance [2]: 5.2 µL/min
pKi (FKBP12): < 5.11
SMILES: C=C(C(=O)N1CCC[C@H]1C(=O)O)C(C)(C)CC [L]
RT97 + RGC axon density 14 days after On transection (% ON axons rescued) [1]: 7.8% ± 3.0% SEM

SMILES: CCC(C)(C)C(=O)C(=O)N1CCC[C@H]1C(=O)SCCC(c1ccccc1)c1ccccc1 [M]
RT97 + RGC axon density 14 days after On transection (% ON axons rescued) [1]: −6.3% ± 3.9% SEM
